Results as given in US20050049273A1, “Acridone derivatives as anti-herpesvirus agents” (priority 2003, published 2005).
Where two headings read alike, the source gives them in different places.

How the values were obtained:
[1] = tested on: HSV-2; test: HSV-2 plaque-elimination assay in Vero cells; type: cell-based, HSV-2 (strain 186); settings: fixed concentration, five micromolar (1, 2, ACV ten micromolar; PFA 250 micromolar), Vero cells, FIG. 3
Experimental: (§1) Three types of antiviral assay were used for HSV studies. For plaque-elimination, Vero cells (70000 per cm^2) were infected with 50-100 PFU for 30 minutes with occasional agitation. The inoculate was replaced with medium containing 1% (v/v) fetal calf serum and supplemented with test agents as indicated (see below). After two days of culture, cells were processed using crystal violet staining and plaques were scored by visual examination (FIG. 3). For examination of anti-HSV activity in parallel cultures during biochemical experiments, the progeny virus obtained from cells and from the culture medium at 23 hours post-infection was determined by limiting dilution on Vero cells (FIG. 5A). Macroscopic viral plaques were scored after two days of incubation in medium containing 1% (w/v) carboxymethylcellulose and 0.5% (v/v) fetal calf serum. For ED50 measurements, the concentration of compound that reduced a single-cycle of viral yield by 50% relative to the control and under the specified condition was interpolated from dose-response graphs (FIG. 4, Table 1). Over the course of ten independent experiments, the mean cell-associated viral yield was 180 PFU per cell (SD=80) and 10 PFU per cell (SD=5) for HSV-1 and HSV-2 respectively. The percent viral release (into the culture medium) was 16 (SD=7) and 0.9 (SD=0.6) for HSV-1 and HSV-2 respectively. These virologic parameters were independent of viral load and serum concentration.

[2] = tested on: HCMV; test: HCMV plaque-elimination assay in HEL cells; type: cell-based, HCMV (Towne); settings: for inhibition of HCMV replication in plaque-elimination screen: fixed concentration, five micromolar (1, 2, ACV ten micromolar; PFA 250 micromolar), FIG. 3; for EC50: read-out: ED50 HCMV; for percent inhibition observed at the highest concentration tested, HCMV: number in parenthesis, NA = no activity observed; for activity against HCMV, in words: quantitative comparison, Table 1
Experimental: Virus and cell growth inhibition assays. Established virus culture techniques were used (E.-S. Huang, and T Kowalnick, Diagnosis of human cytomegalovirus infection: laboratory approaches, in Molecular Aspects of Human Cytomegalovirus Diseases (Becker,Y., Daria, G., and Huang, E.-S. eds.), Springer-Verlag, Berlin, pp. 225-255 (1993); Akanitapichat et al., Antiviral Research 45: 123-134 (2000)) but with the following modifications. For the HCMV plaque-elimination assay, HEL cells were plated in standard medium at 60,000 per cm^2 and infected the following day with 50-100 PFU HCMV for 90 minutes with occasional agitation. The inoculate was replaced with maintenance medium containing 5% (v/v) fetal calf serum and test agents as indicated (see below). After an additional 6-10 days of culture, cells were fixed with formal saline (10% formalin in phosphate-buffered saline; PBS), stained with 0.1% (w/v) toluidine blue in PBS and plaques were scored using an inverted light microscope at 40x magnification (FIGS. 2A and 3). For ED50 determination, the value was interpolated from dose-response data and is the concentration of compound that reduced plaque formation by 50% relative to control under the specified condition.

[3] = tested on: HSV; settings: published work; cited from earlier work
[4] = Vero cell growth inhibition (Sulforhodamine B protein-dye binding); type: cell-based, African green monkey; settings: African green monkey
Experimental: (§2) The effect of compounds on host cell replication (CC50), was measured using Sulforhodamine B-staining and the spectrophotometric method originally developed for the NCIs's in vitro anti-cancer drug screening program (P. Skehan et al., J. Natl. Cancer. Inst. 82, 1107-1112 (1990)). The CC50 value is the concentration of compound that inhibited actively replicating cells by 50% of control respectively after two days of continuous treatment.

[5] = tested on: HSV-1; test: HSV-1 viral yield-reduction assay in Vero cells; type: cell-based, HSV-1 (KOS); settings: for EC50: read-out: ED50 HSV-1
Experimental: as §1

[6] = tested on: HSV-1 proteins; test: HSV-1 viral protein accumulation (Western immunoblot); type: cell-based; settings: 10 micromolar, 16 hours, 2% (v/v) serum, FIG. 5D
[7] = tested on: HEL; test: HEL cell growth inhibition (Sulforhodamine B protein-dye binding); type: cell-based, human; settings: for percent inhibition observed at the highest concentration tested, HEL growth: number in parenthesis, NA = no activity observed
Experimental: as §2

[8] = as above; type: cell-based, human; settings: human, cell growth inhibition, two days of continuous treatment
Experimental: as §2

[9] = tested on: HSV-2; test: HSV-2 viral yield-reduction assay in Vero cells; type: cell-based, HSV-2 (strain 186); settings: for EC50: read-out: ED50 HSV-2
Experimental: as §1

[10] = tested on: host cell replication; test: Host cell replication (CC50), host cell not specified; type: cell-based; settings: mean CC50
Experimental: as §2

[11] = tested on: Vero; test: Vero cell growth inhibition (Sulforhodamine B protein-dye binding); type: cell-based, African green monkey; settings: for percent inhibition observed at the highest concentration tested, Vero growth: number in parenthesis
Experimental: as §2

[12] = tested on: HSV-2 late viral proteins; test: HSV-2 late viral protein synthesis (pulse labeling, SDS-PAGE, phosphor-imaging); type: cell-based; settings: twenty micromolar, 0.1 PFU, 2% (v/v) serum
Experimental: Analysis of HSV proteins. Viral protein synthesis was examined using pulse labeling, SDS-PAGE gel separation and phosphor-imaging. Vero cells were infected and treated under conditions specified below and in FIG. 5. After 17 hours of infection, 10 μCi/mL TRAN^35S-LABEL ™ was added directly to culture medium and incubation continued for 30 more minutes. Radio-labeled cell cultures were carefully washed with PBS pre-warmed to 37° C. then lysed at 2,000,000 cells per mL in the same buffer supplemented with 2% (w/v) SDS. After denaturing cell lysates in Laemmli loading buffer, total proteins recovered from 30,000 cells were separated using either 8% (FIG. 5B) or 10% (FIG. 5D) PAGE-SDS gels (U. Laemmli, Nature, 227,680-685 (1970)). Proteins were transferred to nitrocellulose and the synthesized proteins were visualized and quantified using a STORM phosphorimager (Molecular Devices, Sunnyvale CA) and the supplied ImageQuant software according to the manufacturers instructions (FIG. 5, panels B and C). Protein load between samples was compared qualitatively by visual examination of filters stained with India-Ink. A complementary approach for assessing drug effect on viral proteins involved immune detection on a Western-blot using conditions and reagents described previously (Akanitapichat and Bastow, supra 2002).

[13] = Human betaherpesvirus 5, prevention of microscopic viral plaques, HEL cells
[14] = Human alphaherpesvirus 1, viral yield-reduction, 1 PFU per cell in 5% (v/v) serum, Vero cells
[15] = Vero cells, cell growth inhibition, two days of continuous treatment, read-out: CC50 Vero
[16] = Human alphaherpesvirus 2, viral yield-reduction, 1 PFU per cell in 5% (v/v) serum, Vero cells
[17] = quantitative comparison, Table 1
[18] = cell growth inhibition, two days of continuous treatment

## COc1ccc2[nH]c3cc(O)cc(O)c3c(=O)c2c1 [Compound 3, 1,3-Dihydroxy-7-methoxyacridone]
[1]
  inhibition of HSV-2 replication in plaque-elimination screen: inactive
[2]; HEL cells
  inhibition of HCMV replication in plaque-elimination screen: inactive

## COc1ccc2[nH]c3cc(OCc4ccccc4)cc(O)c3c(=O)c2c1 [Compound 9, 3-Benzyloxy-1-hydroxy-7-methoxyacridone]
[1]
  inhibition of HSV-2 replication in plaque-elimination screen: inhibited HCMV but not HSV-2 replication
[2]
  anti-HCMV activity relative to compound 2: about five-fold less active than 2
[2]; [13]
  EC50: 6.9 ± 0.6 µM
[2]; HEL cells
  inhibition of HCMV replication in plaque-elimination screen: inhibited HCMV but not HSV-2 replication

## O=c1c2cc(O)ccc2[nH]c2cc(O)cc(O)c12 [1,3,7-trihydroxyacridone]
[3]
  selectivity of anti-HSV action: 3 fold

## COc1cc(O)c2c(=O)c3cc(O)ccc3[nH]c2c1 [Compound 4, 1,7-Dihydroxy-3-methoxyacridone]
[1]
  inhibition of HSV-2 replication in plaque-elimination screen: only inhibited HSV replication
[4]; Vero cells, read-out: CC50 against Vero replication
  CC50 at 2 days: 25 µM

## C=CCOc1cc(O)c2c(=O)c3cc(OC)ccc3[nH]c2c1 [Compound 10, 3-Allyloxy-1-hydroxy-7-methoxyacridone]
[1]
  inhibition of HSV-2 replication in plaque-elimination screen: almost completely preventing the formation of microscopic viral plaques
[5]
  selectivity, inhibition of HSV-1 replication: 41 fold
[5]; HSV-1, low viral load (0.01 PFU) and low serum (0.5% v/v), FIG. 4 panel D
  change of ED50 concentration for inhibition of viral release: decreased about six-fold
[5]; Human alphaherpesvirus 1, Vero, 10 micromolar, 16 hours, 2% (v/v) serum, various viral loads, FIG. 5D, read-out: inhibition of HSV-1 viral replication
  inhibition at 10 µM: 64 to 95%
[5]; [14]
  EC50: 2.3 ± 0.3 µM
[2]; HEL cells
  inhibition of HCMV replication in plaque-elimination screen: almost completely preventing the formation of microscopic viral plaques
[2]
  percent inhibition observed at the highest concentration tested, HCMV: 80%
  activity against HCMV, in words: at least as active as the 3,7-dimethoxy lead (2)
[6]
  effect on HSV-1 viral protein accumulation: no effect
[7]
  percent inhibition observed at the highest concentration tested, HEL growth: 33%
[8]; HEL cells
  CC50 at 2 days: > 50 µM
[4]; [15]
  CC50 at 2 days: 95 ± 2 µM
[9]
  selectivity, inhibition of HSV-2 replication: 24 fold
[9]; [16]
  EC50: 3.9 ± 1 µM

## COc1cc(O)c2c(=O)c3cccc(OC)c3[nH]c2c1 [Compound 5, 3,5-Dimethoxy-1-hydroxyyacridone]
[1]
  inhibition of HSV-2 replication in plaque-elimination screen: inactive
[2]; HEL cells
  inhibition of HCMV replication in plaque-elimination screen: inactive
[10]
  CC50: 33 µM

## O=C(O)P(=O)(O)O [PFA, phosphonoformic acid]
[2]; [13]
  EC50: 70 ± 10 µM
[7]
  percent inhibition observed at the highest concentration tested, HEL growth: 11%
[8]; HEL cells
  CC50 at 2 days: > 500 µM
[4]; [15]
  CC50 at 2 days: > 500 µM
[11]
  percent inhibition observed at the highest concentration tested, Vero growth: 11%
[9]; Human alphaherpesvirus 2, Vero
  EC50: 60 ± 5 µM

## Nc1nc2c(ncn2COCCO)c(=O)[nH]1 [ACV, Acyclovir]
[5]; [14]
  EC50: 0.2 µM
[2]; [13]
  EC50: > 200 µM
[2]
  activity against HCMV, in words: inactive
[6]
  effect on HSV-1 viral protein accumulation: abolished
[8]; HEL cells
  CC50 at 2 days: > 500 µM
[4]; [15]
  CC50 at 2 days: > 200 µM
[11]
  percent inhibition observed at the highest concentration tested, Vero growth: 41%
[9]
  activity against HSV-2 relative to HSV-1: four-fold less active
[9]; [16]
  EC50: 0.8 ± 0.1 µM

## COc1cc(O)c2c(=O)c3cc(OC(C)C)ccc3[nH]c2c1 [Compound 13, 1-Hydroxy-7-isopropoxy-3-methoxyacridone]
[2]; HEL cells
  inhibition of HCMV replication in plaque-elimination screen: active
[8]; HEL cells
  CC50 at 2 days: 12 µM

## O=c1c2cccc(Cl)c2[nH]c2cc(O)cc(O)c12 [Compound 1, 5-chloro-1,3-dihydroxyacridone]
[5]; Human alphaherpesvirus 1, Vero
  EC50: 4.3 ± 0.8 µM
[2]; Human betaherpesvirus 5, HEL
  EC50: > 50 µM
[2]
  percent inhibition observed at the highest concentration tested, HCMV: 25%
[3]
  selectivity of anti-HSV action: 26 fold
[7]
  percent inhibition observed at the highest concentration tested, HEL growth: 18%
[8]
  CC50 at 2 days: > 50 µM
[4]; cell growth inhibition, two days of continuous treatment, read-out: CC50 Vero
  CC50 at 2 days: > 50 µM
[11]
  percent inhibition observed at the highest concentration tested, Vero growth: 23%
[9]; Human alphaherpesvirus 2, Vero
  EC50: 3.8 ± 0.3 µM

## COc1ccc2[nH]c3cc(OC(C)C)cc(O)c3c(=O)c2c1 [Compound 8, 1-Hydroxy-3-isopropoxy-7-methoxyacridone]
[1]
  inhibition of HSV-2 replication in plaque-elimination screen: almost completely preventing the formation of microscopic viral plaques
[2]; HEL cells
  inhibition of HCMV replication in plaque-elimination screen: almost completely preventing the formation of microscopic viral plaques
[9]; 10 μM in 2% (v/v) serum, 0.001 PFU per cell HSV-2, up to forty-eight hours after infection
  viral release: completely prevented viral release
[9]; Human alphaherpesvirus 2, Vero, 10 μM in 2% (v/v) serum, 0.001 PFU per cell HSV-2, forty-eight hours, read-out: inhibition of production of cell-associated virus
  inhibition at 10 µM: 80%

## COc1cc(O)c2c(=O)c3cccc(O)c3n(C)c2c1OC [Citrusinine-I]
[1]
  inhibition of HSV-2 replication in plaque-elimination screen: HSV plaque-size was uniformly smaller in the presence of Citrusinine I but the number of visible plaques was not reduced
[5]; [17]
  activity against HSV-1 (KOS), in words: inactive
[2]
  activity against HCMV, in words: selective inhibitor
[12]
  HSV-2 late protein synthesis remaining: about 10 % of control
[7]; [18]
  CC50: 41 ± 5 µM
[11]; [18]
  CC50: 27 ± 4 µM
[9]; [17]
  activity against HSV-2, in words: selective inhibitor
[9]; twenty micromolar, 0.1 PFU, 22 hours, 2% (v/v) serum
  HSV-2 replication remaining: about 10 % of control
